Experimental data: PubChem BioAssay AID1671241

Target: Macrophage colony-stimulating factor 1 receptor (Homo sapiens) (UniProt P07333)
Test: CSF1R kinase inhibitors, dose response, biochemical, Z'-LYTE, FRET, protease-coupled, direct format (AID 1671241)
Conditions: Z'-LYTE FRET kinase assay

Sequence of Macrophage colony-stimulating factor 1 receptor (Homo sapiens) (P07333 whole entry, looked up): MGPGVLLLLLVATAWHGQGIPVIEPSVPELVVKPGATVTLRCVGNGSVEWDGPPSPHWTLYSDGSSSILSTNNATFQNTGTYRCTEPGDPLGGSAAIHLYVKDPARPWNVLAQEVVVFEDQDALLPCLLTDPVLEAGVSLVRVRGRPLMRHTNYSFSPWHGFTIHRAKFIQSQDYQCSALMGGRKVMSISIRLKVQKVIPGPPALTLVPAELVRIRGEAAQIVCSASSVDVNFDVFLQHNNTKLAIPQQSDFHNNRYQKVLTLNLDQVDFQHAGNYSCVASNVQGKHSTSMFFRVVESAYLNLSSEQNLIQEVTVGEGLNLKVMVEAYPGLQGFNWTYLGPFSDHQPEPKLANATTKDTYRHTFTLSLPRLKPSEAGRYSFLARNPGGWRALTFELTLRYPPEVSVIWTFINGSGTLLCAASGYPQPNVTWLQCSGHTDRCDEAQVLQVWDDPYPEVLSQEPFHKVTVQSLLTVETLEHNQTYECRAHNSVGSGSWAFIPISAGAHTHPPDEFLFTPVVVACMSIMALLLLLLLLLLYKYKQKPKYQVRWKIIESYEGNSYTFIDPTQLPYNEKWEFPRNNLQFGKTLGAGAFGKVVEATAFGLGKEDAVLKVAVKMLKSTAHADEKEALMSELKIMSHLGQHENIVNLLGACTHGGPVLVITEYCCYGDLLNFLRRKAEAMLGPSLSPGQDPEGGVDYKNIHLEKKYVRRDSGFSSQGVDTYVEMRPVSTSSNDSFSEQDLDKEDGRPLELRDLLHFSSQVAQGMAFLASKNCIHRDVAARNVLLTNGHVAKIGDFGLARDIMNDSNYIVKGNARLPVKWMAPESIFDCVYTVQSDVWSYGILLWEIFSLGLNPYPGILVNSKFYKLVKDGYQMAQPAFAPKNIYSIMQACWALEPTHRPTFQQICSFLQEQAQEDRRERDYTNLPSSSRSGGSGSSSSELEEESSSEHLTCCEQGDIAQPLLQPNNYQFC

IC50: 6.02 µM
Structure (SMILES): COc1cc2ncnc(Nc3cccc(Cl)c3)c2cc1OC
